SMILES strings stand for the structures. Where two headings read alike, the source gives them in different places.

The target of data set [1] is T1, galactose dehydrogenase (Pseudomonas fluorescens, UniProt P11886).
T1 construct: purchased
T1 sequence (P11886 1-304): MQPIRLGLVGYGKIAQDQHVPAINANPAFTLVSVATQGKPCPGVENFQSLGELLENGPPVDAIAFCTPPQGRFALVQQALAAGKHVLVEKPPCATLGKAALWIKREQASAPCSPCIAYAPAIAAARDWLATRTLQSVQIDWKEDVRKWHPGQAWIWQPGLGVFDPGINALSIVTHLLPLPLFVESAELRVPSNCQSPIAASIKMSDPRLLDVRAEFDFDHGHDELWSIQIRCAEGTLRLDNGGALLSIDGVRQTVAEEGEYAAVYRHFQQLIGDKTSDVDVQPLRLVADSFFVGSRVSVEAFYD
As to the kind of experiment: Stabilizer analysis: linearity test of the galactose test strip system with different stabilizers. The conditions noted are these: 0.05%, 2.5% and 5.5%. The method, then: Galactochek Blood Galactose Meters, the galactose rapid detection system (galactose dehydrogenase concentration: 13.39%) with different types of stabilizers and concentrations, and YSI 2900 Automatic analyzer.
All chemicals were purchased from Sigma-Aldrich (St. Louis, MO). A stock solution of galactose at 20 mg/mL was prepared with reverse osmosis water. The standard solutions are used to prepare different galactose concentration blood sample. The final concentration of galactose in blood were 200, 450, 800, 1150 and 1500 μg/mL.
Obtain the R^2 value of the linearity test result of different strip test groups to evaluate that which type of stabilizer and concentration were suitable to be used in the system. In addition, % CV≤20% at galactose concentration range of 200-250 μg/mL, and % CV≤15% at galactose concentration range of 251-1500 μg/mL.

Data set [2] deals with T1, galactose dehydrogenase. As to the kind of experiment: Electrochemical response after galactose dehydrogenase immobilization and drying onto the biosensor with protectant. The conditions noted are these: protectant used as stabilizer during immobilization and drying. An excerpt: The electrochemistry-based biosensor is designed as a test strip of electrode containing a reaction zone where galactose within the blood sample is to react with galactose metabolic enzymes, leading to the generation of an electrochemical signal. Two galactose-catalyzing enzymes, galactose dehydrogenase (GD) and galactose oxidase (GO) capable of generating electrochemical information, were selected for embedded immobilization and drying onto the electrode to enable electrochemical signal production. […] However, GO catalyzes the oxidation of primary alcohols and sugars (including d-galactose and lactose) in the presence of oxygen, thus impacting the accuracy of quantitation. Aggravatingly, excessive oxygen can compete with the electron mediator of the oxidase-based amperometric strip for electrons, thus resulting in underestimation of galactose measurement. This poses a challenge in point-of-care (POC) scenarios where fresh whole blood sample, rich in oxygen due to prolonged exposure to the atmosphere, or from critically ill patients receiving oxygen support, are utilized.
Galactose dehydrogenase, on the other hand, catalyzes d-galactose with high specificity without the involvement of oxygen. The enzyme was therefore used to be immobilized and dried onto the biosensor. […]

Data set [3] is described as follows: Intravenous injection galactose GSP test (blood galactose after intravenous galactose). The following applies: human, plasma, 0.5 g/kg, average ± standard error. It is filed as in vivo. The method, then: The conventional detection method is used for intravenous injection of 0.5 g/kg galactose after fasting for 8 hours, and measured the galactose concentration in plasma after 60 minutes (Tang H. S. et al. (1992) Digestion, 52:222-231; Ranek L. et al. (1983) Clin. Physiol. 3:173-178). The measurement method comprises: drawing a measurement curve according to a relationship between different concentrations of standard galactose solutions and light absorption values thereof; adding HClO4 in the extracted blood and shaking for mixing, then taking supernatant by centrifugation; adding KOH into the supernatant and shaking for mixing, then taking supernatant by centrifugation again; and then adding galactose dehydrogenase into the supernatant and placing in a dark room for 60 minutes to avoid color reaction inaccuracy for preparing of a specimen and measuring the light absorption value thereof; and finally finding the concentration value by the measurement curve. However, the detection process is complicated and time-consuming, and requires using a variety of medicaments. Therefore, it takes lengthy procedure to learn the detecting result.
The oral administration galactose OGSP values of the subjects in the liver function normal group are in the range 318±27 μg/ml (average±standard error) with the minimum value 18 μg/ml and maximum value 887 μg/ml. […] The oral administration galactose OGSP values of the subjects in the liver function severely impaired group are in the range 777±48 μg/ml with the minimum value 293 μg/ml and maximum value 1499 μg/ml. […] Particularly, the oral administration galactose OGSP value is higher than the intravenous injection galactose GSP value. […] The oral administration galactose OGSP values of the subjects in the liver function severely impaired group are mainly in the range of 681-873 μg/ml (average+2*standard error). […] Therefore, further liver function tests should be taken in the subjects whose OGSP value is greater than 370 μg/ml. In additional to intravencous injection, similar results were obtained by other injection or other administration ways.

The nature of data set [4]: clinical. The following applies: human, in vivo. An excerpt:
The user needs to drink the oral galactose composition first, wherein the content of the galactose is 1%-80%, preferably 4%-40%, by weight of the total galactose composition, wherein the buffer solution can be not added or can be added to the total weight of 0.001%-5%, and the antioxidant can be not added or can be added to the total weight of 0.001%-5%. Appropriate formula can be prepared by selecting the buffer and the antioxidant, and adding the content of the following ingredients: antioxidant of 0.01M-1M selected from a group including vitamin C, sodium bisulfite, vitamin A, vitamin E, flavonoids, polyphenols, Ethylenediaminetetraacetic acid (EDTA), Diethylenetriaminepentaacetic acid (DTPA), and NTA-Nitrilotriacetate acid (NTA); and/or buffer solution of 0.01M-1M selected from a group including acetic buffer, citrate buffer, phosphate buffer, acetate buffer, carbonate buffer, ascorbic acid buffer, and triethanolamine buffer with adjustment of the pH values ranged 4.0-9.0. A stable formula can be obtained by adding 0.01% citrate buffer and 0.5% sodium bisulfite with a pH value of 4.5. […]
Before sampling biological sample, wipe the fingertips with alcohol cotton. […] In addition, the potential of this readout can be transmitted to the others including medical practitioners through Bluetooth or similar connection through a mobile phone or computer. […]

For data set [5] the following is noted: average ± standard error, literature values, cited from earlier work.

In the case of `NCC(=O)O` [Glycine, glycine], the “suitability as stabilizer in the system” value in data set [1] is on record as “not suitable”.
With `OC[C@H]1O[C@@](CO)(O[C@H]2O[C@H](CO)[C@@H](O)[C@H](O)[C@H]2O)[C@@H](O)[C@@H]1O` [Sucrose, sucrose], in data set [1], the “suitability as stabilizer in the system” value is “not suitable”.
As to `OC[C@H]1O[C@H](O[C@H]2O[C@H](CO)[C@@H](O)[C@H](O)[C@H]2O)[C@H](O)[C@@H](O)[C@@H]1O` [Trehalose, trehalose], the “galactose-dependent electrochemical signal of GD-based biosensor” value in data set [2] was “successfully preserved the activity of enzyme”.
Regarding `OC[C@@H](O)[C@@H](O)[C@H](O)[C@H](O)CO` [Mannitol, mannitol], in data set [1], the “suitability as stabilizer in the system” value is given as “not suitable”.
Turning to `O=C[C@H](O)[C@@H](O)[C@@H](O)[C@H](O)CO` [galactose], the concentration at 60 min in data set [3] (Mild or moderate impairment of liver function (N = 31)) is 359 ± 10 µg/mL; in data set [3] (Normal liver function (N = 56)), 174 ± 8 µg/mL; in data set [3] (Severe impairment of liver function (N = 40)), 667 ± 29 µg/mL; in data set [4] (OGSP maximum value), 887 µg/mL; in data set [4] (OGSP values mainly in the range), 510 to 670 µg/mL. Moreover, the figures for the “IV GSP, Digestion 1992; 52: 222-231” value in data set [5] (Mild or moderate impairment of liver function), in data set [5] (Normal liver function) and in data set [5] (Severe impairment of liver function) were 423 ± 26.0 µg/mL, 247 ± 16.5 µg/mL and 630 ± 41.0 µg/mL, respectively.

The values above are taken from patent US20240344108A1, “GALACTOSE RAPID QUANTITATIVE DETECTION SYSTEM AND USE THEREOF” (Avalon HepaPOC Limited, priority 2018, published 2024).
